Reference: paper PMC6154583, “Optimized 4,5-Diarylimidazoles as Potent/Selective Inhibitors of Protein Kinase CK1δ and Their Structural Relation to p38α MAPK” (Molecules : A Journal of Synthetic Chemistry and Natural …, 2017)

Columns and labels:
Type in all cases: biochemical
[1] = system: panel of 321 protein kinases; test: Selectivity profiling in a panel of 321 protein kinases (ProQinase); conditions: 100 nM
ACV-R1 = ACV-R1 (Homo sapiens, UniProt Q04771); test: ProQinase 33PanQinase selectivity profiling; conditions: 100 nM, relative to control, read-out: Residual activity (%)
ACV-RL1 = biological target: T1, ACV-RL1 (Homo sapiens, UniProt P37023); test: ProQinase 33PanQinase selectivity profiling; conditions: 100 nM, relative to control, read-out: Residual activity (%)
T1 construct: purchased ProQinase GmbH (Freiburg, Germany)

AKT2 aa107-481 = biological target: T2, AKT2 aa107-481 (Homo sapiens, UniProt P31751); test: ProQinase 33PanQinase selectivity profiling; conditions: 100 nM, relative to control, read-out: Residual activity (%)
T2 construct: AKT2 aa107-481; purchased ProQinase GmbH (Freiburg, Germany)

AKT3 aa106-479 = biological target: T3, AKT3 aa106-479 (Homo sapiens, UniProt Q9Y243); test: ProQinase 33PanQinase selectivity profiling; conditions: 100 nM, relative to control, read-out: Residual activity (%)
T3 construct: AKT3 aa106-479; purchased ProQinase GmbH (Freiburg, Germany)

AMPK-alpha1 aa1-550 = biological target: T4, AMPK-alpha1 aa1-550 (Homo sapiens, UniProt Q13131); test: ProQinase 33PanQinase selectivity profiling; conditions: 100 nM, relative to control, read-out: Residual activity (%)
T4 construct: AMPK-alpha1 aa1-550; purchased ProQinase GmbH (Freiburg, Germany)

ARK5 = ARK5 (Homo sapiens, UniProt O60285); test: ProQinase 33PanQinase selectivity profiling; conditions: 100 nM, relative to control, read-out: Residual activity (%)
Aurora-C = biological target: T5, Aurora-C (Homo sapiens, UniProt Q9UQB9); test: ProQinase 33PanQinase selectivity profiling; conditions: 100 nM, relative to control, read-out: Residual activity (%)
T5 construct: purchased ProQinase GmbH (Freiburg, Germany)

BMPR1A = biological target: T6, BMPR1A (Homo sapiens, UniProt P36894); test: ProQinase 33PanQinase selectivity profiling; conditions: 100 nM, relative to control, read-out: Residual activity (%)
T6 construct: purchased ProQinase GmbH

BMX = biological target: T7, BMX (Homo sapiens, UniProt P51813); test: ProQinase 33PanQinase selectivity profiling; conditions: 100 nM, relative to control, read-out: Residual activity (%)
T7 construct: purchased ProQinase GmbH

B-RAF = B-RAF (Homo sapiens, UniProt P15056); test: ProQinase 33PanQinase selectivity profiling; conditions: 100 nM, relative to control, read-out: Residual activity (%)
CAMK2B = CAMK2B (Homo sapiens, UniProt Q13554); test: ProQinase 33PanQinase selectivity profiling; conditions: 100 nM, relative to control, read-out: Residual activity (%)
CAMK4 = CAMK4 (Homo sapiens, UniProt Q16566); test: ProQinase 33PanQinase selectivity profiling; conditions: 100 nM, relative to control, read-out: Residual activity (%)
CAMKK1 = CAMKK1 (Homo sapiens, UniProt Q8N5S9); test: ProQinase 33PanQinase selectivity profiling; conditions: 100 nM, relative to control, read-out: Residual activity (%)
CAMKK2 = CAMKK2 (Homo sapiens, UniProt Q96RR4); test: ProQinase 33PanQinase selectivity profiling; conditions: 100 nM, relative to control, read-out: Residual activity (%)
CDK19/CycC = CDK19/CycC (Homo sapiens, UniProt Q9BWU1); test: ProQinase 33PanQinase selectivity profiling; conditions: 100 nM, relative to control, read-out: Residual activity (%)
CDK2/CycA2 = CDK2/CycA2 (Homo sapiens, UniProt P24941); test: ProQinase 33PanQinase selectivity profiling; conditions: 100 nM, relative to control, read-out: Residual activity (%)
CDK3/CycC = CDK3/CycC (Homo sapiens, UniProt Q00526); test: ProQinase 33PanQinase selectivity profiling; conditions: 100 nM, relative to control, read-out: Residual activity (%)
CDK4/CycD1 = CDK4/CycD1 (Homo sapiens, UniProt P11802); test: ProQinase 33PanQinase selectivity profiling; conditions: 100 nM, relative to control, read-out: Residual activity (%)
CDK5/p25NCK = CDK5/p25NCK (Homo sapiens, UniProt Q00535); test: ProQinase 33PanQinase selectivity profiling; conditions: 100 nM, relative to control, read-out: Residual activity (%)
CDK5/p35NCK = CDK5/p35NCK (Homo sapiens, UniProt Q00535); test: ProQinase 33PanQinase selectivity profiling; conditions: 100 nM, relative to control, read-out: Residual activity (%)
CDK6/CycD1 = CDK6/CycD1 (Homo sapiens, UniProt Q00534); test: ProQinase 33PanQinase selectivity profiling; conditions: 100 nM, relative to control, read-out: Residual activity (%)
CDK8/CycC = CDK8/CycC (Homo sapiens, UniProt P49336); test: ProQinase 33PanQinase selectivity profiling; conditions: 100 nM, relative to control, read-out: Residual activity (%)
CDK9/CycK = CDK9/CycK (Homo sapiens, UniProt P50750); test: ProQinase 33PanQinase selectivity profiling; conditions: 100 nM, relative to control, read-out: Residual activity (%)
CDK9/CycT1 = CDK9/CycT1 (Homo sapiens, UniProt P50750); test: ProQinase 33PanQinase selectivity profiling; conditions: 100 nM, relative to control, read-out: Residual activity (%)
CHK1 = CHK1 (Homo sapiens, UniProt O14757); test: ProQinase 33PanQinase selectivity profiling; conditions: 100 nM, relative to control, read-out: Residual activity (%)
CK1-gamma1 = CK1-gamma1 (Homo sapiens, UniProt Q9HCP0); test: ProQinase 33PanQinase selectivity profiling; conditions: 100 nM, relative to control
CK1-gamma2 = CK1-gamma2 (Homo sapiens, UniProt P78368); test: ProQinase 33PanQinase selectivity profiling; conditions: 100 nM, relative to control
CK1-gamma3 = CK1-gamma3 (Homo sapiens, UniProt Q9Y6M4); test: ProQinase 33PanQinase selectivity profiling; conditions: 100 nM, relative to control
CK2-alpha1 = CK2-alpha1 (Homo sapiens, UniProt P68400); test: ProQinase 33PanQinase selectivity profiling; conditions: 100 nM, relative to control, read-out: Residual activity (%)
COT = biological target: T8, COT (Homo sapiens, UniProt P41279); test: ProQinase 33PanQinase selectivity profiling; conditions: 100 nM, relative to control, read-out: Residual activity (%)
T8 construct: purchased ProQinase GmbH

DAPK1 = DAPK1 (Homo sapiens, UniProt P53355); test: ProQinase 33PanQinase selectivity profiling; conditions: 100 nM, relative to control, read-out: Residual activity (%)
DMPK = DMPK (Homo sapiens, UniProt Q09013); test: ProQinase 33PanQinase selectivity profiling; conditions: 100 nM, relative to control, read-out: Residual activity (%)
DYRK1B = DYRK1B (Homo sapiens, UniProt Q9Y463); test: ProQinase 33PanQinase selectivity profiling; conditions: 100 nM, relative to control, read-out: Residual activity (%)
DYRK2 = DYRK2 (Homo sapiens, UniProt Q92630); test: ProQinase 33PanQinase selectivity profiling; conditions: 100 nM, relative to control, read-out: Residual activity (%)
DYRK3 = DYRK3 (Homo sapiens, UniProt O43781); test: ProQinase 33PanQinase selectivity profiling; conditions: 100 nM, relative to control, read-out: Residual activity (%)
EIF2AK2 = biological target: T9, EIF2AK2 (Homo sapiens, UniProt P19525); test: ProQinase 33PanQinase selectivity profiling; conditions: 100 nM, relative to control, read-out: Residual activity (%)
T9 construct: purchased ProQinase GmbH

EPHA2 = EPHA2 (Homo sapiens, UniProt P29317); test: ProQinase 33PanQinase selectivity profiling; conditions: 100 nM, relative to control, read-out: Residual activity (%)
p38α MAPK = p38α MAPK (Homo sapiens, UniProt Q16539); test: ProQinase 33PanQinase selectivity profiling; conditions: 100 nM, relative to control, read-out: residual activity
JNK3 = JNK3 (Homo sapiens, UniProt P53779); test: ProQinase 33PanQinase selectivity profiling; conditions: 100 nM, relative to control, read-out: residual activity
[2] = read-out: Residual activity (%)

Sequence of CK1-gamma2 (P78368 whole entry): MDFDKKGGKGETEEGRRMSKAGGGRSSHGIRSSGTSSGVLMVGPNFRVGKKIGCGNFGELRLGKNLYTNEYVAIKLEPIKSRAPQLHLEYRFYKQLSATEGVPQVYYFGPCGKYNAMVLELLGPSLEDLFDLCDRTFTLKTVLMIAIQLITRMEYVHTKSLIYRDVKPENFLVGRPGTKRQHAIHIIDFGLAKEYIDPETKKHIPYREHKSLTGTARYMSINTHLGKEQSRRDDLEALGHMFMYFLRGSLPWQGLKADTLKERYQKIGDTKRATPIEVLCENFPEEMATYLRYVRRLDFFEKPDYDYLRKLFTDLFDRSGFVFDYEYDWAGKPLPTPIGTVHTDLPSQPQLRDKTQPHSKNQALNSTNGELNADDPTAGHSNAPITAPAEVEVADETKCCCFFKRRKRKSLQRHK
Sequence of CK1-gamma3 (Q9Y6M4 whole entry): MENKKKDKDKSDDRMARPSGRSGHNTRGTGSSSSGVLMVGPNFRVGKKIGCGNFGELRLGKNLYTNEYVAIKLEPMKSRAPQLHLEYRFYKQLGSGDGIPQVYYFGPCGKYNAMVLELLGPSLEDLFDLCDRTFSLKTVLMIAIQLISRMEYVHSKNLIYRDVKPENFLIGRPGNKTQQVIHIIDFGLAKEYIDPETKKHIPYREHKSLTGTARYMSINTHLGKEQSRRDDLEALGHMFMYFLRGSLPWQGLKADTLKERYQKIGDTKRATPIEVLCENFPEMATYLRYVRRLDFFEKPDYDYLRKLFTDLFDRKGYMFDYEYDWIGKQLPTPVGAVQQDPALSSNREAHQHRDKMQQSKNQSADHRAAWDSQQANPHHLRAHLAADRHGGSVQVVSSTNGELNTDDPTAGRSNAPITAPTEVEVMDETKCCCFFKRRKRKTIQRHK
Sequence of CK1-gamma1 (Q9HCP0 whole entry): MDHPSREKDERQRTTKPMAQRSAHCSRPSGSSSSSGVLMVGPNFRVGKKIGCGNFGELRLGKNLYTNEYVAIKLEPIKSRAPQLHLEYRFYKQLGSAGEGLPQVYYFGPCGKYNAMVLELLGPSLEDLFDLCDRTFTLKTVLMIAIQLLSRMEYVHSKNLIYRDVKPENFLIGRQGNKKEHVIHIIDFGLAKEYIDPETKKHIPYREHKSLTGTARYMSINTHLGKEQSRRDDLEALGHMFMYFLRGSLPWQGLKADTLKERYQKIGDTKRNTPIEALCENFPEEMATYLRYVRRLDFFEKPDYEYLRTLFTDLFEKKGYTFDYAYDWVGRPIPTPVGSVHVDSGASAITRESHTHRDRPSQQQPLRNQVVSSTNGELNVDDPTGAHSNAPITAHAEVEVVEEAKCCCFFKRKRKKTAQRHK
Sequence of CDK6/CycD1 (Q00534 whole entry): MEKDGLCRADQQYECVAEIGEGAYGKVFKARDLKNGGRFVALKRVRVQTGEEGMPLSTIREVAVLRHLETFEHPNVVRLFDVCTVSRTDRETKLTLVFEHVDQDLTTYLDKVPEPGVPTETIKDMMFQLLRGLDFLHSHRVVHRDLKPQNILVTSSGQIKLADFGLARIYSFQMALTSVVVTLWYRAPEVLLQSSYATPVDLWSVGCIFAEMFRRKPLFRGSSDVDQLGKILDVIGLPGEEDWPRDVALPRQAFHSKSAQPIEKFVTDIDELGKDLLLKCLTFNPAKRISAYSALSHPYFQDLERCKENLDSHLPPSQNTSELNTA
Sequence of CDK6/CycD1 (P24385 whole entry partner): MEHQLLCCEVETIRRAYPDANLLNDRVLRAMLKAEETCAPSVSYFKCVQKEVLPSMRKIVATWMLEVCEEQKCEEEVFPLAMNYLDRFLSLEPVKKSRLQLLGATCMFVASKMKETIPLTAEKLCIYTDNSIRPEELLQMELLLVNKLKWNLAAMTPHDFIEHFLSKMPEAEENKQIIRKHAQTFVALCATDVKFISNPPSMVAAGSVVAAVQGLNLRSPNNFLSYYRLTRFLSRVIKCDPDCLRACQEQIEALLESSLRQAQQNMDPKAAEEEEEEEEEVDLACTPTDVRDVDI
Sequence of DYRK1B (Q9Y463 whole entry): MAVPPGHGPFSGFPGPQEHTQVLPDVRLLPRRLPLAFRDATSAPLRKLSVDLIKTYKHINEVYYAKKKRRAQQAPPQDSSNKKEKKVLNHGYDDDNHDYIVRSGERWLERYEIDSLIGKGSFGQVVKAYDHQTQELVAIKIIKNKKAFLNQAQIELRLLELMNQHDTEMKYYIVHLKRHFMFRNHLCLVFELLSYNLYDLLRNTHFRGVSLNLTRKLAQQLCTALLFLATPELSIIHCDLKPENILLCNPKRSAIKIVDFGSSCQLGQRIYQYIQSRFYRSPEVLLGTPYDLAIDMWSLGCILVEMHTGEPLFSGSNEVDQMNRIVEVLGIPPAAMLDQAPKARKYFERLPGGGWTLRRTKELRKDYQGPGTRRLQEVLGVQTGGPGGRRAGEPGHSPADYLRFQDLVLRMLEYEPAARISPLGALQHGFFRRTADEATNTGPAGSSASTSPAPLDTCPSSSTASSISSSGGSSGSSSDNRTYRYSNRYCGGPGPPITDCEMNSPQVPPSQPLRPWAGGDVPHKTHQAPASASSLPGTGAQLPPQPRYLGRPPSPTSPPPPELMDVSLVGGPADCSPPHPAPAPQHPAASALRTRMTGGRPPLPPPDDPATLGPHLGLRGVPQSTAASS
Sequence of CAMKK1 (Q8N5S9 whole entry): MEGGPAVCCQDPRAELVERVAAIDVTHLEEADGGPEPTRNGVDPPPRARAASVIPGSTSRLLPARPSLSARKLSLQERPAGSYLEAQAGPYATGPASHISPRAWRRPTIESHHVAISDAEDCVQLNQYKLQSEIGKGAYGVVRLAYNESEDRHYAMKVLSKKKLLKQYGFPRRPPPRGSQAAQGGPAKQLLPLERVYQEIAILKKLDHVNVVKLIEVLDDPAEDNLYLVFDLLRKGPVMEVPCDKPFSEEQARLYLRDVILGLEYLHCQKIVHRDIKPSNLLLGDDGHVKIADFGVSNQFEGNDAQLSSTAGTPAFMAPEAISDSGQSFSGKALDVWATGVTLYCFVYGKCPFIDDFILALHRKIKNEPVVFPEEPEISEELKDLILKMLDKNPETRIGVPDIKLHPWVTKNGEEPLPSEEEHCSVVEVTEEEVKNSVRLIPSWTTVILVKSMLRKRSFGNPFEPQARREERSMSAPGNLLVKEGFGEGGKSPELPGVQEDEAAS
Sequence of CHK1 (O14757 whole entry): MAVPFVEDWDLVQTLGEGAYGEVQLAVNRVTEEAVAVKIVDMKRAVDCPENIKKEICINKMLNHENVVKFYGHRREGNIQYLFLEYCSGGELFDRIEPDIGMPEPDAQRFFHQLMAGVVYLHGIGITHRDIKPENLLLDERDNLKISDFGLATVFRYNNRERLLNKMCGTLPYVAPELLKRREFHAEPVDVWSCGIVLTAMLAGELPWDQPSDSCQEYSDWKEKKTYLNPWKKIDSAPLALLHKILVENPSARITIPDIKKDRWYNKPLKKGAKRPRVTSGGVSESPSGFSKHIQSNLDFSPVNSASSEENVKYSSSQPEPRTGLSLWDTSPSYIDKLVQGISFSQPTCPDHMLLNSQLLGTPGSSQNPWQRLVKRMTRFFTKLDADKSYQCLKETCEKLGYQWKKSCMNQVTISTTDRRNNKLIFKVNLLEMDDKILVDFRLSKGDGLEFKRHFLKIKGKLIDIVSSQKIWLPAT
T1 sequence (P37023 22-503): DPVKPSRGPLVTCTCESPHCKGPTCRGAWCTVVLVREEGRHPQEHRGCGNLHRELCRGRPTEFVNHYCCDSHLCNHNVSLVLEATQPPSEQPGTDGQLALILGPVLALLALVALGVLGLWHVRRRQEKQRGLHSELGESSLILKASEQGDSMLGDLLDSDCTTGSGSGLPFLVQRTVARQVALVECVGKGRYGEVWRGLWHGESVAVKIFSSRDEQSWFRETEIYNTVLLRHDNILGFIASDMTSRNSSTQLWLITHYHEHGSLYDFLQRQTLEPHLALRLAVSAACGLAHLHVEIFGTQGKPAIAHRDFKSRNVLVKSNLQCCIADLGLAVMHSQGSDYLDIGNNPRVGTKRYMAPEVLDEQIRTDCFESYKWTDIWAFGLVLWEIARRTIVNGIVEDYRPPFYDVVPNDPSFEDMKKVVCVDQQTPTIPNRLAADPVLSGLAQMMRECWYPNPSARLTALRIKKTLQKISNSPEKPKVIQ
T9 sequence (P19525 whole entry): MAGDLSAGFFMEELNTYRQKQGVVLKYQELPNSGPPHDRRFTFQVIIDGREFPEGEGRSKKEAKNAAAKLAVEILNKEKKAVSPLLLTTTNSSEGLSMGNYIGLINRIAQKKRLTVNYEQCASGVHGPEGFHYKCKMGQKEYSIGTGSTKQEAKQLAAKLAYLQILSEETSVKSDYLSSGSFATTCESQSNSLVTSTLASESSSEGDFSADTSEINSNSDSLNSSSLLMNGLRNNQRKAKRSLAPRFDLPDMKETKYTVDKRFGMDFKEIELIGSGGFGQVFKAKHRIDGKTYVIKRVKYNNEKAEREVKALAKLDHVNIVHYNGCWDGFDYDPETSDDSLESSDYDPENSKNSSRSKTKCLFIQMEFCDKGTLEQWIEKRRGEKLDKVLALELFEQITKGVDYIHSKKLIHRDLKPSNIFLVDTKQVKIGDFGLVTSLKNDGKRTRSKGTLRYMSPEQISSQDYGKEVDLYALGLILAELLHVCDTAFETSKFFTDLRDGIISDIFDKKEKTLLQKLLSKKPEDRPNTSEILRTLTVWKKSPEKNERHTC
T2 sequence (P31751 107-481): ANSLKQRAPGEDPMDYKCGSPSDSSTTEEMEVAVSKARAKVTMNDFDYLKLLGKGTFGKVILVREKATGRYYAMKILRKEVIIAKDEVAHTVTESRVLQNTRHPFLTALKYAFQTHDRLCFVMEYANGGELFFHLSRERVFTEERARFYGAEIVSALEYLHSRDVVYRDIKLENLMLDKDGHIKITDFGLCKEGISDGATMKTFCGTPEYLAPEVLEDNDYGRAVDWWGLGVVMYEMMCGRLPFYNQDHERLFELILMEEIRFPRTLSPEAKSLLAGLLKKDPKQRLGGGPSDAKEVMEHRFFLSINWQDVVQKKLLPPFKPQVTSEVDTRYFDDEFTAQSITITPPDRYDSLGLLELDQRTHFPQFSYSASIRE

**Q.** What does the source list for `COc1ccc(OC)c(CCC(=O)Nc2cc(-c3nc(SC)[nH]c3-c3ccc(F)cc3)ccn2)c1` [11b, 3-(2,5-Dimethoxyphenyl)-N-(4-(5-(4-fluorophenyl)-2-(methylthio)-1H-imidazol-4-yl)-pyridin-2-yl)-propanamide]?
**A.** selectivity score S(50) ([1]; 321 protein kinases, calculated in accordance to Karaman et al.): 0.027; additional kinases with residual activities less than 50% apart from CK1δ and CK1ε ([1]; panel of 321 protein kinases): six; remaining activity at 0.1 µM (ACV-R1): 95%; remaining activity at 0.1 µM (ACV-RL1): 99%; remaining activity at 0.1 µM (AKT2 aa107-481): 97%; remaining activity at 0.1 µM (AKT3 aa106-479): 83%; remaining activity at 0.1 µM (AMPK-alpha1 aa1-550): 96%; remaining activity at 0.1 µM (ARK5): 88%; remaining activity at 0.1 µM (Aurora-C): 93%; remaining activity at 0.1 µM (BMPR1A): 102%; remaining activity at 0.1 µM (BMX): 98%; remaining activity at 0.1 µM (B-RAF): 91%; remaining activity at 0.1 µM (CAMK2B): 103%; remaining activity at 0.1 µM (CAMK4): 95%; remaining activity at 0.1 µM (CAMKK1): 99%; remaining activity at 0.1 µM (CAMKK2): 96%; remaining activity at 0.1 µM (CDK19/CycC): 86%; remaining activity at 0.1 µM (CDK2/CycA2): 87%; remaining activity at 0.1 µM (CDK3/CycC): 95%; remaining activity at 0.1 µM (CDK4/CycD1): 98%; remaining activity at 0.1 µM (CDK5/p25NCK): 117%; remaining activity at 0.1 µM (CDK5/p35NCK): 85%; remaining activity at 0.1 µM (CDK6/CycD1): 105%; remaining activity at 0.1 µM (CDK8/CycC): 90%; remaining activity at 0.1 µM (CDK9/CycK): 103%; remaining activity at 0.1 µM (CDK9/CycT1): 93%; remaining activity at 0.1 µM (CHK1): 92%; Residual activity (%) (CK1-gamma1): unaffected; remaining activity at 0.1 µM (CK1-gamma1; [2]): 100%; Residual activity (%) (CK1-gamma2): unaffected; remaining activity at 0.1 µM (CK1-gamma2; [2]): 91%; Residual activity (%) (CK1-gamma3): unaffected; remaining activity at 0.1 µM (CK1-gamma3; [2]): 73%; remaining activity at 0.1 µM (CK2-alpha1): 97%; remaining activity at 0.1 µM (COT): 111%; remaining activity at 0.1 µM (DAPK1): 96%; remaining activity at 0.1 µM (DMPK): 103%; remaining activity at 0.1 µM (DYRK1B): 101%; remaining activity at 0.1 µM (DYRK2): 99%; remaining activity at 0.1 µM (DYRK3): 97%; remaining activity at 0.1 µM (EIF2AK2): 91%; remaining activity at 0.1 µM (EPHA2): 95%; remaining activity at 0.1 µM (p38α MAPK): 22%; remaining activity at 0.1 µM (JNK3): 37%
